Experimental data published in the NIST ThermoML archive (doi:10.1021/je030191w).
± gives the expanded uncertainty stated by the source.

Key:
[1] = 101 kPa, Liquid
[2] = xn = mol fraction of the nth substance listed; conditions: 101 kPa, Liquid, x1 = 1

SMILES: CCn1cc[n+](C)c1.F[B-](F)(F)F [1-ethyl-3-methylimidazolium tetrafluoroborate]
- mass density ([1]; 293.15 K): 1340.7 ± 50 kg/m3
- viscosity ([1]; 293.15 K): 45.29 ± 2.9 mPa·s
- mass density ([1]; 298.15 K): 1336.7 ± 50 kg/m3
- viscosity ([1]; 298.15 K): 37.19 ± 2.4 mPa·s
- mass density ([1]; 303.15 K): 1332.9 ± 50 kg/m3
- viscosity ([1]; 303.15 K): 31.36 ± 2.1 mPa·s
- mass density ([1]; 308.15 K): 1329.6 ± 50 kg/m3
- viscosity ([1]; 308.15 K): 25.56 ± 1.7 mPa·s
- mass density ([1]; 313.15 K): 1325.9 ± 50 kg/m3
- viscosity ([1]; 313.15 K): 21.54 ± 1.5 mPa·s
- mass density ([1]; 318.15 K): 1322.2 ± 50 kg/m3
- viscosity ([1]; 318.15 K): 18.84 ± 1.3 mPa·s
- mass density ([1]; 323.15 K): 1319.5 ± 50 kg/m3
- viscosity ([1]; 323.15 K): 15.9 ± 1.1 mPa·s

SMILES: O [water] + CCn1cc[n+](C)c1.F[B-](F)(F)F
- viscosity ([2]; 293.15 K): 1.002 ± 0.099 mPa·s
- viscosity ([2]; 298.15 K): 0.89 ± 0.089 mPa·s
- viscosity ([2]; 303.15 K): 0.798 ± 0.081 mPa·s
- viscosity ([2]; 308.15 K): 0.719 ± 0.075 mPa·s
- viscosity ([2]; 313.15 K): 0.653 ± 0.069 mPa·s
- mass density ([2]; 318.15 K): 990.1 ± 50 kg/m3
- viscosity ([2]; 318.15 K): 0.599 ± 0.064 mPa·s
- mass density ([2]; 323.15 K): 988 ± 50 kg/m3
- viscosity ([2]; 323.15 K): 0.547 ± 0.06 mPa·s
